Measured values from patent US10793885B2, “Compositions and methods for making noscapine and synthesis intermediates thereof” (priority 2013, dated 2020).

Tests used:
CYP82X2 = molecular target: T1, CYP82X2 (UniProt D5J9U8+I3PLR0); experiment: In vitro enzyme assay with yeast microsomal fractions containing CYP82X2 (CPR/82X2); assay type: biochemical, Papaver somniferum; details: yeast microsomes (CPR/82X2), extracted ion chromatograms, FIG. 13
T1 construct: the full-length coding regions of CYP82X1 and CYP82X2 were inserted into the NotI and SpeI restriction sites; FLAG; made in house; host or cells: Saccharomyces cerevisiae YPL 154C:Pep4, microsomal fraction
T1 sequence (D5J9U8+I3PLR0 with tags, fused parts or gaps): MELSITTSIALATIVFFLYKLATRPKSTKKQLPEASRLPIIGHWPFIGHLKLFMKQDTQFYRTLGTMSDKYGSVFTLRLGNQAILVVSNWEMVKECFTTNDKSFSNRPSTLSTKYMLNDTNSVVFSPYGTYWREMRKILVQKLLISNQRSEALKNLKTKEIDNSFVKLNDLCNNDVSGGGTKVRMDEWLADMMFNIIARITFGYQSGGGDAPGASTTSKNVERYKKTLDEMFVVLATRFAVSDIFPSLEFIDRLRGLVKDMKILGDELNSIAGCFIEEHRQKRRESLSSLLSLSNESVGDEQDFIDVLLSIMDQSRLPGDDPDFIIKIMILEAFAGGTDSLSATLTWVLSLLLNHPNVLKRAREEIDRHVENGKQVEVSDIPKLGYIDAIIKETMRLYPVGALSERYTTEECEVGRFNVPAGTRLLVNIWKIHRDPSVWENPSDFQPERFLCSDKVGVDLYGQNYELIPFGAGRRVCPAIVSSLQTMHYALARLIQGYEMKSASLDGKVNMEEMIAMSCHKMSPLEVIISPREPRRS
From the text: (§1) The full-length coding region of CYP82X1 was amplified using cDNA derived from total stem RNA of the Bea's Choice chemotype using Takara Ex Taq DNA polymerase (Fisher Scientific, Ottawa, Canada), and using a primer 5′-[…]-3′ (SEQ ID NO: 607) and reverse primer 5′-[…]-3′ (SEQ ID NO: 608). Owing to problems with heterologous expression in yeast, CYP82X2 was synthesized with the first 60 N-terminal amino acids replaced with the first 43 N-terminal amino acids from the lettuce cytochrome P450 germacrene A oxidase Nguyen, D. T. et al. J. Biol. Chem. 285, 16588-16598 (2010). For heterologous expression of Flag-tagged CYPs in yeast (Saccharomyces cerevisiae), the full-length coding regions of CYP82X1 and CYP82X2 were inserted into the NotI and SpeI restriction sites of the dual plasmid pESC-leu2d::CPR Ro, D.-K., Ouellet, M., Paradise, E. M., Burd, H., Eng, D., Paddon, C. J., Newman, J. D., & Keesling, J. D. BMC Biotech. 8, 83 (2008) yielding pESC-Leu2d::CYP82X1/CPR and pESC-Leu2d::CYP82X2/CPR. The protease-deficient yeast strain YPL 154C:Pep4 was transformed with pESC-Leu2d::CYP82X1/CPR and pESC-Leu2d::CYP82X2/CPR. Yeast culture, microsome preparation, and immunoblot analysis were performed as described previously Dang, T.-T. T. & Facchini, P. J. J. Biol. Chem. 289, 2013-2026 (2014). For heterologous expression of CXE1, CXE2, and AT1, corresponding open reading frames were amplified using cDNA derived from total stem RNA of the Bea's Choice chemotype and cloned in-frame an N-terminal His-tag sequence in the Escherichia coli expression vector pRSETA (Invitrogen, Carlsbad, Calif.). CXE1 and CXE2 were individually inserted into the SacI and HindIII restriction sties, whereas AT1 was inserted into the KpnI and HindIII sites, of pRSETA using a primer 5′-[…]-3′ (SEQ ID NO: 609) and reverse primer 5′-[…]-3′ (SEQ ID NO: 610). […] Microsomal fractions containing recombinant CYP82X1 or CYP82X2 were detected using a-FLAG antibodies, whereas recombinant CPR was detected using α-c-Myc antibodies (FIG. 12 A). […]

CYP82X1 = molecular target: T2, CYP82X1 (Papaver somniferum, UniProt I3V6B7); experiment: In vitro enzyme assay with yeast microsomal fractions containing CYP82X1 (CPR/82X1); assay type: biochemical; details: yeast microsomes (CPR/82X1), extracted ion chromatograms, FIG. 13
T2 construct: The full-length coding region of CYP82X1 was amplified using cDNA derived from total stem RNA of the Bea's Choice chemotype; FLAG; made in house; host or cells: Saccharomyces cerevisiae YPL 154C:Pep4, microsomal fraction
T2 sequence (I3V6B7 1-540): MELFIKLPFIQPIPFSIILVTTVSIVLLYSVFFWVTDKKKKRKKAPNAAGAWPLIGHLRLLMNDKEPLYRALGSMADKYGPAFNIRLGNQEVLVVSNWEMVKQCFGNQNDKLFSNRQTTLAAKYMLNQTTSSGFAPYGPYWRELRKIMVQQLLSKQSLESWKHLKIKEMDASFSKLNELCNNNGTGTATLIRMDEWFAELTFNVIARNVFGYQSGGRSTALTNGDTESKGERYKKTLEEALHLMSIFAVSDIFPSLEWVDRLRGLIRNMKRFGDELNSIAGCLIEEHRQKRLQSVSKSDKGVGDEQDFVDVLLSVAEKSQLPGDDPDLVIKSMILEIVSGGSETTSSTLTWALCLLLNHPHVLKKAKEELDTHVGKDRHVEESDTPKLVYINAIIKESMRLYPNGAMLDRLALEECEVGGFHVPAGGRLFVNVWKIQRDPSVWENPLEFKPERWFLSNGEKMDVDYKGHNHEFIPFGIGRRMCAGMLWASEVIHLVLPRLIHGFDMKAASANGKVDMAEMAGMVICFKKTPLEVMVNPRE
From the text: as §1

AT1 = molecular target: T3, AT1 (Papaver somniferum, UniProt I3PLR4); experiment: In vitro AT1 assay with purified recombinant protein; assay type: biochemical; details: native recombinant AT1, 50 μM acetyl-CoA, pH 8.0, 30° C., 15 min
T3 construct: corresponding open reading frames were amplified using cDNA derived from total stem RNA of the Bea's Choice chemotype; His-tag (pRSETA leader) (N); made in house; host or cells: Escherichia coli Rosetta (DE3) pLysS
T3 sequence (I3PLR4 1-471): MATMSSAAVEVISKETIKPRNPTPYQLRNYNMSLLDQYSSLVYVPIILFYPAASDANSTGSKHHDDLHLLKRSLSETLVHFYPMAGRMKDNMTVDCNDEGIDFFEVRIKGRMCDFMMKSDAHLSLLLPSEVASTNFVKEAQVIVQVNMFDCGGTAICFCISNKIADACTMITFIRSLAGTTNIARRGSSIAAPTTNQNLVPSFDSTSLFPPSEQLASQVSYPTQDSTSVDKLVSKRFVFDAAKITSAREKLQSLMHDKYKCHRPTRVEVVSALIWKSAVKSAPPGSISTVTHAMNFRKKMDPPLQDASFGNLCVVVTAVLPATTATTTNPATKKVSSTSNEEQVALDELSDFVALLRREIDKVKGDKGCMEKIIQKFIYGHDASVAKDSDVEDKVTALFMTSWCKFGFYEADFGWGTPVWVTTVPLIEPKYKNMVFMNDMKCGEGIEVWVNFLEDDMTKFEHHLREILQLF
From the text: (§2) The full-length coding region of CYP82X1 was amplified using cDNA derived from total stem RNA of the Bea's Choice chemotype using Takara Ex Taq DNA polymerase (Fisher Scientific, Ottawa, Canada), and using a primer 5′-[…]-3′ (SEQ ID NO: 607) and reverse primer 5′-[…]-3′ (SEQ ID NO: 608). Owing to problems with heterologous expression in yeast, CYP82X2 was synthesized with the first 60 N-terminal amino acids replaced with the first 43 N-terminal amino acids from the lettuce cytochrome P450 germacrene A oxidase Nguyen, D. T. et al. J. Biol. Chem. 285, 16588-16598 (2010). For heterologous expression of Flag-tagged CYPs in yeast (Saccharomyces cerevisiae), the full-length coding regions of CYP82X1 and CYP82X2 were inserted into the NotI and SpeI restriction sites of the dual plasmid pESC-leu2d::CPR Ro, D.-K., Ouellet, M., Paradise, E. M., Burd, H., Eng, D., Paddon, C. J., Newman, J. D., & Keesling, J. D. BMC Biotech. […] For heterologous expression of CXE1, CXE2, and AT1, corresponding open reading frames were amplified using cDNA derived from total stem RNA of the Bea's Choice chemotype and cloned in-frame an N-terminal His-tag sequence in the Escherichia coli expression vector pRSETA (Invitrogen, Carlsbad, Calif.). […] Microsomal fractions containing recombinant CYP82X1 or CYP82X2 were detected using a-FLAG antibodies, whereas recombinant CPR was detected using α-c-Myc antibodies (FIG. 12 A). […]

CXE2 = molecular target: T4, CXE2 (Papaver somniferum, UniProt A0A0A1EQ07); experiment: In vitro CXE2 assay with purified recombinant protein; assay type: biochemical; details: E. coli produced CXE2
T4 construct: corresponding open reading frames were amplified using cDNA derived from total stem RNA of the Bea's Choice chemotype; His-tag (pRSETA leader) (N); made in house; host or cells: Escherichia coli Rosetta (DE3) pLysS
T4 sequence (A0A0A1EQ07 1-313): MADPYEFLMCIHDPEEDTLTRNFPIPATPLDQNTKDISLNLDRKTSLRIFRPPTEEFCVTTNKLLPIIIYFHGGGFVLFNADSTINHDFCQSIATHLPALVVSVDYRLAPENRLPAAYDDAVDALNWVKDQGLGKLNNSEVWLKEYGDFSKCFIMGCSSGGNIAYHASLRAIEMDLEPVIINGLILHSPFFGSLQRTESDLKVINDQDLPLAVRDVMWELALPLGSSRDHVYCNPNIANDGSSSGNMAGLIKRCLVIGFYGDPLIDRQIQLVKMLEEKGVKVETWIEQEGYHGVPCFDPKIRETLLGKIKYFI
From the text: as §2

CXE1 = molecular target: T5, CXE1 (Papaver somniferum, UniProt I3PLR2); experiment: In vitro CXE1 assay with purified recombinant protein; assay type: biochemical; details: native recombinant CXE1, pH 8.0, 30° C., 15 min
T5 construct: corresponding open reading frames were amplified using cDNA derived from total stem RNA of the Bea's Choice chemotype; His-tag (pRSETA leader) (N); made in house; host or cells: Escherichia coli Rosetta (DE3) pLysS
T5 sequence (I3PLR2 1-320): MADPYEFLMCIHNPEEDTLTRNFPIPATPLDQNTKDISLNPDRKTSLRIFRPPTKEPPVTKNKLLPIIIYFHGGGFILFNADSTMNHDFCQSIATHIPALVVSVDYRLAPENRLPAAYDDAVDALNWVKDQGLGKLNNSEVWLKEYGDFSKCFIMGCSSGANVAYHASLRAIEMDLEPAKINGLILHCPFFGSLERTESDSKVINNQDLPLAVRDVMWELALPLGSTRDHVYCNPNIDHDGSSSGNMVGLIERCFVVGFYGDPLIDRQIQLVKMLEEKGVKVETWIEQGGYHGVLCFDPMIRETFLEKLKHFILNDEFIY
From the text: as §2

**Q.** For `COc1ccc2c(c1OC)C[N+]1(C)CCc3cc4c(c(O)c3C1C2O)OCO4` [(S)-1,13-dihydroxy-N-methylcanadine], which “conversion as substrate by CYP82X2” value (CYP82X2) is on record?
**A.** No products were detected

**Q.** What about the “conversion as substrate by CYP82X1” value (CYP82X1) of the same compound?
**A.** No products were detected

**Q.** What about the “conversion as substrate by AT1” value (AT1) of the same compound?
**A.** forming (S)-1-hydroxy-13-O-acetyl-N-methylcanadine

**Q.** Which results are given for `COc1ccc(C(OC(C)=O)C2c3c(cc4c(c3OC)OCO4)CCN2C)c(C=O)c1OC` (centres unmarked) [3-O-acetylpapaveroxine]?
**A.** conversion as substrate by CXE2 (CXE2): form narcotine hemiacetal; conversion as substrate by CXE1 (CXE1): yielding papaveroxine
